Holding throughout (assay type): functional
Test [1] relates to Nakaseomyces glabratus. Put plainly: Antifungal activity against Clinical isolate Candida glabrata assessed as inhibition of visible growth.
For test [2], the system named is Candida tropicalis. Put plainly: Antifungal activity against Candida tropicalis CGMCC 2.3739 assessed as inhibition of visible growth.
The test system of test [3] is Pichia kudriavzevii. Nature of the test: Antifungal activity against Candida krusei AS 2.1045 assessed as inhibition of visible growth.
For test [4], the system named is Cryptococcus neoformans. Put plainly: Antifungal activity against Cryptococcus neoformans CGMCC 2.3161 assessed as inhibition of visible growth.
Test [5] has as its system Candida albicans. Put plainly: Antifungal activity against Candida albicans CPCC 400616 assessed as inhibition of visible growth.
Test [6] concerns Candida albicans. Put plainly: Antifungal activity against Candida albicans SC 5314 assessed as inhibition of visible growth.
Test [7] relates to Candida parapsilosis. Put plainly: Antifungal activity against Candida parapsilosis GIM 2.190 assessed as inhibition of visible growth. The following applies: Lodderomyces parapsilosis.
The subject of test [8] is Aspergillus fumigatus. Nature of the test: Antifungal activity against Aspergillus fumigatus CGMCC 3.7795 assessed as inhibition of visible growth.

Converted amounts (≈) assume the structure as drawn.

From ChEMBL document CHEMBL6182926, “Design, Synthesis, and Biological Activity Evaluation of Deuterated Diphenyl Azole Alcohol-Based CYP51 Inhibitors” (J Med Chem, 2025) come the findings set out here.

`[2H]C([2H])([2H])N(Cc1ccc(-c2ccc(Cl)cc2)cn1)[C@H](C)[C@](O)(Cn1cncn1)c1ccc(F)cc1F`: the MIC80 in test [1] was determined as 0.025 µg/mL (≈ 0.0513 µM); in test [2] it was 0.006 µg/mL (≈ 0.0123 µM); in test [3], 0.012 µg/mL (≈ 0.0246 µM); in test [4] it was 0.012 µg/mL (≈ 0.0246 µM); in test [5] it was 0.006 µg/mL (≈ 0.0123 µM); in test [6], 0.006 µg/mL (≈ 0.0123 µM). Also, the MIC80 is 0.006 µg/mL (≈ 0.0123 µM) in test [7] and 0.05 µg/mL (≈ 0.103 µM) in test [8].
For `[2H]C([2H])([2H])N(Cc1ccc(-c2ccc(OC(F)(F)F)cc2)nc1)[C@H](C)[C@](O)(Cn1cncn1)c1ccc(F)cc1F`, the MIC80 in test [1] came out at 0.012 µg/mL (≈ 0.0224 µM); in test [2] it was 0.012 µg/mL (≈ 0.0224 µM); in test [3] it was 0.012 µg/mL (≈ 0.0224 µM); in test [4], 0.012 µg/mL (≈ 0.0224 µM); in test [5], 0.012 µg/mL (≈ 0.0224 µM); in test [6] it was 0.006 µg/mL (≈ 0.0112 µM). In addition, the MIC80 in test [7] was 0.006 µg/mL (≈ 0.0112 µM); in test [8], 0.025 µg/mL (≈ 0.0466 µM).
Take `O[C@@](Cn1cnnn1)(c1ccc(F)cc1F)C(F)(F)c1ccc(-c2ccc(OCC(F)(F)F)cc2)cn1` [OTESECONAZOLE]: the MIC80 amounted to 0.1 µg/mL (≈ 0.19 µM) in test [1]; 0.006 µg/mL (≈ 0.0114 µM) in test [2]; 0.1 µg/mL (≈ 0.19 µM) in test [3]; 0.012 µg/mL (≈ 0.0228 µM) in test [4]; 0.006 µg/mL (≈ 0.0114 µM) in test [5]; 0.006 µg/mL (≈ 0.0114 µM) in test [6]. Further, the MIC80 was 0.006 µg/mL (≈ 0.0114 µM) in test [7] and over 64 µg/mL in test [8].
As to `[2H]C([2H])([2H])N(Cc1ccc(-c2ccc(Cl)cc2)cc1F)[C@H](C)[C@](O)(Cn1cncn1)c1ccc(F)cc1F`, the MIC80 in test [1] was 0.012 µg/mL (≈ 0.0238 µM); in test [2], 0.006 µg/mL (≈ 0.0119 µM); in test [3], 0.012 µg/mL (≈ 0.0238 µM); in test [4], 0.012 µg/mL (≈ 0.0238 µM); in test [5], 0.006 µg/mL (≈ 0.0119 µM); in test [6] it was 0.006 µg/mL (≈ 0.0119 µM). Moreover, the MIC80 came out at 0.006 µg/mL (≈ 0.0119 µM) in test [7] and 0.025 µg/mL (≈ 0.0496 µM) in test [8].
In the case of `[2H]C([2H])([2H])N(Cc1ccc(-c2ccc(Cl)c(F)c2)cc1F)[C@H](C)[C@](O)(Cn1cncn1)c1ccc(F)cc1F`, the MIC80 in test [1] amounted to 0.025 µg/mL (≈ 0.0479 µM); in test [2], 0.012 µg/mL (≈ 0.023 µM); in test [3], 0.025 µg/mL (≈ 0.0479 µM); in test [4], 0.025 µg/mL (≈ 0.0479 µM); in test [5], 0.012 µg/mL (≈ 0.023 µM); in test [6] it was 0.012 µg/mL (≈ 0.023 µM). Besides, the MIC80 in test [7] was determined as 0.012 µg/mL (≈ 0.023 µM); in test [8], 0.05 µg/mL (≈ 0.0958 µM).
With `[2H]C([2H])([2H])N(Cc1ccc(-c2ccc(Cl)cc2F)cc1)[C@H](C)[C@](O)(Cn1cncn1)c1ccc(F)cc1F`, the MIC80 in test [1] turned out to be 0.025 µg/mL (≈ 0.0496 µM); in test [2], 0.006 µg/mL (≈ 0.0119 µM); in test [3], 0.012 µg/mL (≈ 0.0238 µM); in test [4], 0.012 µg/mL (≈ 0.0238 µM); in test [5] it was 0.006 µg/mL (≈ 0.0119 µM); in test [6], 0.006 µg/mL (≈ 0.0119 µM). The MIC80 was determined as 0.006 µg/mL (≈ 0.0119 µM) in test [7] and 0.012 µg/mL (≈ 0.0238 µM) in test [8].
In the case of `[2H]C([2H])([2H])N(Cc1ccc(-c2ccc(C(F)(F)F)cc2)cc1F)[C@H](C)[C@](O)(Cn1cncn1)c1ccc(F)cc1F`, the MIC80 in test [1] was determined as 0.025 µg/mL (≈ 0.0465 µM); in test [2], 0.012 µg/mL (≈ 0.0223 µM); in test [3], 0.05 µg/mL (≈ 0.093 µM); in test [4] it was 0.025 µg/mL (≈ 0.0465 µM); in test [5] it was 0.012 µg/mL (≈ 0.0223 µM); in test [6], 0.012 µg/mL (≈ 0.0223 µM). Further, the MIC80 in test [7] stood at 0.012 µg/mL (≈ 0.0223 µM); in test [8], 0.05 µg/mL (≈ 0.093 µM).
For the compound `CC(C)c1ccc(-c2ccc(CN(C)CC(O)(Cn3cncn3)c3ccc(F)cc3F)nc2)cc1` (configuration not stated), the MIC80 in test [1] amounted to 0.2 µg/mL (≈ 0.419 µM); in test [2] it was 0.012 µg/mL (≈ 0.0251 µM); in test [3] it was 0.1 µg/mL (≈ 0.209 µM); in test [4] it was 0.025 µg/mL (≈ 0.0523 µM); in test [5], 0.012 µg/mL (≈ 0.0251 µM); in test [6], 0.012 µg/mL (≈ 0.0251 µM). Further, the MIC80 in test [7] is 0.012 µg/mL (≈ 0.0251 µM).
`[2H]C([2H])([2H])N(Cc1ccc(-c2ccc(Cl)cc2F)cc1F)[C@H](C)[C@](O)(Cn1cncn1)c1ccc(F)cc1F`: the MIC80 stood at 0.025 µg/mL (≈ 0.0479 µM) in test [1]; 0.012 µg/mL (≈ 0.023 µM) in test [2]; 0.05 µg/mL (≈ 0.0958 µM) in test [3]; 0.025 µg/mL (≈ 0.0479 µM) in test [4]; 0.012 µg/mL (≈ 0.023 µM) in test [5]; 0.012 µg/mL (≈ 0.023 µM) in test [6]. Besides, the MIC80 in test [7] is 0.012 µg/mL (≈ 0.023 µM); in test [8], 0.05 µg/mL (≈ 0.0958 µM).
Take `CN(Cc1ccc(-c2ccc(C(F)(F)F)cc2)cn1)CC(O)(Cn1cncn1)c1ccc(F)cc1F` (configuration not stated): the MIC80 stood at 0.05 µg/mL (≈ 0.0993 µM) in test [1]; 0.012 µg/mL (≈ 0.0238 µM) in test [2]; 0.05 µg/mL (≈ 0.0993 µM) in test [3]; 0.025 µg/mL (≈ 0.0497 µM) in test [4]; 0.012 µg/mL (≈ 0.0238 µM) in test [5]; 0.012 µg/mL (≈ 0.0238 µM) in test [6]. Besides, the MIC80 in test [7] worked out at 0.006 µg/mL (≈ 0.0119 µM).
Take `CN(Cc1ccc(-c2ccc(Cl)cc2)nc1)CC(O)(Cn1cncn1)c1ccc(F)cc1F` (configuration not stated): the MIC80 was determined as 0.1 µg/mL (≈ 0.213 µM) in test [1]; 0.012 µg/mL (≈ 0.0255 µM) in test [2]; 0.025 µg/mL (≈ 0.0532 µM) in test [3]; 0.05 µg/mL (≈ 0.106 µM) in test [4]; 0.012 µg/mL (≈ 0.0255 µM) in test [5]; 0.012 µg/mL (≈ 0.0255 µM) in test [6]. Also, the MIC80 in test [7] is 0.006 µg/mL (≈ 0.0128 µM).
With `OC(CNCc1ccc(-c2ccc(Cl)cc2)cc1)(Cn1cncn1)c1ccc(F)cc1F` (configuration not stated), the MIC80 in test [1] turned out to be 0.05 µg/mL (≈ 0.11 µM); in test [2], 0.025 µg/mL (≈ 0.055 µM); in test [3] it was 0.05 µg/mL (≈ 0.11 µM); in test [4], 0.05 µg/mL (≈ 0.11 µM); in test [5], 0.025 µg/mL (≈ 0.055 µM); in test [6], 0.025 µg/mL (≈ 0.055 µM). Besides, in test [7], the MIC80 stood at 0.025 µg/mL (≈ 0.055 µM).
